Where “and” joins values, the source holds several entries; their conditions need not be identical. Equal entries are not always repeated.
Legend:
CYP3A4 = CYP3A4 (Homo sapiens, UniProt P08684); test: CYP inhibition, CYP3A4; format: in vitro ADME
Experimental: At pre-set time-points, blood concentration of JH4 was determined by LC-MS/MS analysis[22],[23]. Other chemicals were also tested using similar protocol. In vitro ADME studies (plasma protein binding, CYP inhibition, microsomal stability, plasma stability, and hERG inhibition) were performed by New Drug Development Center (Daegu, Korea) using standard protocols[24],[25].

progerin = target: T1, progerin (Homo sapiens, UniProt P02545); test: Exogenous GFP-progerin expression in transfected HEK293 cells; format: cell-based; parameters: expressed in transfected cells; host or cells: HEK293 (ATCC); vector from T. Misteli (NCI); conditions: for GFP intensity after treatment with SLC-D011, Ave: average; for GFP intensity after treatment with SLC-D011: single replicates
T1 sequence (P02545 1-614 isoform P02545-6): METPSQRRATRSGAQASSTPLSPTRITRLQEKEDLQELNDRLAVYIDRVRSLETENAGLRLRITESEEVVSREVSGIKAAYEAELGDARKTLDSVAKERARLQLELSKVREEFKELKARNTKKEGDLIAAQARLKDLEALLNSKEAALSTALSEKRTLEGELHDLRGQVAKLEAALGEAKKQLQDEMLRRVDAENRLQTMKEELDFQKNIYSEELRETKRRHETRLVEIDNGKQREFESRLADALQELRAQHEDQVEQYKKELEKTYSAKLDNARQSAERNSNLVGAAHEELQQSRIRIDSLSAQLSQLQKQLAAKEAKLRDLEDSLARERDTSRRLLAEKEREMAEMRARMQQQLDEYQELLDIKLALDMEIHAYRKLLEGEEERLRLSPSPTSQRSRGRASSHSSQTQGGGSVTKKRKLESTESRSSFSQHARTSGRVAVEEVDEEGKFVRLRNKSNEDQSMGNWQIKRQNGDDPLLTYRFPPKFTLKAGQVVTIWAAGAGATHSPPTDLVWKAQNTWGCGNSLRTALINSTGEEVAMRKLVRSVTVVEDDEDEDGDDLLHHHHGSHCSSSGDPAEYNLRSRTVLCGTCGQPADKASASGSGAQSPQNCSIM
Experimental: A. In vivo pharmacokinetic (PK) analysis of JH010 (performed in rats). […] B Effect of SLC-D011 on human ERG (hERG). […] C In vivo pharmacokinetic analysis of SLD-D011. […] HEK293 cells transiently transfected with GFP-PG vectors were treated with SLC-D011 for 24 hr (n = 3 independent experiment; two-tailed Student’s t test). […] “Con” means dimethyl sulfoxide (DMSO)-treated control.
GFP tag conjugated EV (GFP-EV), lamin A (GFP-LA), lamin A-C661A (GFP-LA-C661A), progerin (GFP-PG), and progerin-C611A (GFP-PG-C611A) vectors were used. GFP-PG and GFP-LA expression vectors were kindly provided by Misteli T. (National Cancer Institute [NCI], Frederick, MD, USA). GFP-LA-C661A and GFP-PG-C611A expression vectors were created by a single point mutation in CaaX motif. The CSIM sequence of lamin A, or progerin was mutated to ASIM. jetPEI (Polyplus Transfection, NY, USA) was used for transfection of expression vectors. Vectors were mixed with 1.5 μl of jetPEI in 150 mM NaCl solution. The mixture was added to HEK293 cells. After 4 h of incubation, medium was replaced with a new medium supplemented with 10% FBS.
Protein was extracted from cells using a radioimmunoprecipitation assay (RIPA) buffer (50 mM Tris-Cl, pH 7.5, 150 mM NaCl, 1% NP-40, 0.1% SDS, and 10% sodium deoxycholate). Samples were separated by sodium dodecyl sulfate-polyacrylamide gel electrophoresis (SDS-PAGE) and transferred to polyvinylidene difluoride (PVDF) membranes. Blotted membranes were blocked with 3% skimmed milk in TBS-T buffer (20 mM Tris pH 7.6, 150 mM NaCl, and 0.05% Tween 20) for 1 h followed by incubation with specific primary antibodies. Horseradish peroxidase (HRP)-conjugated goat anti-mouse, goat anti-rabbit, and mouse anti-goat IgG antibodies (Pierce, Thermo Fisher Scientific, Inc., Rockford, IL, USA) were used as secondary antibodies. Peroxidase activity was detected by chemiluminescence using an ECL kit (Intron, Seoul, Korea) following the manufacturer’s instructions. Bands were quantified using Image J software (National Institute of Health, NIH).

Sequence of CYP3A4 (P08684 whole entry): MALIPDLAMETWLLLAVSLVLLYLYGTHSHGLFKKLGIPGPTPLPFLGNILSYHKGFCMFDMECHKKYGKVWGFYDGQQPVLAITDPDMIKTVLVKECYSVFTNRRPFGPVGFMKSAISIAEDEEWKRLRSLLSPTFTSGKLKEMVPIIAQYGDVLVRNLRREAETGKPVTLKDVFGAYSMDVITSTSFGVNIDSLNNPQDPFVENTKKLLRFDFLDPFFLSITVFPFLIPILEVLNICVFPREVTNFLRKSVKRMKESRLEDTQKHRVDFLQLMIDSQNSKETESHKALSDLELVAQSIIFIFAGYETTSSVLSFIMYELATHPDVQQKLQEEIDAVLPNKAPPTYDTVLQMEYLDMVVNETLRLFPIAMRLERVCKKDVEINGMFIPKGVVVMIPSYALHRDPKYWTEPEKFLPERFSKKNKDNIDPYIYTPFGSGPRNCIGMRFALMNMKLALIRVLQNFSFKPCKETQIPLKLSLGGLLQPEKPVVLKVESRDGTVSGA

CC1(C)Oc2cc3oc(=O)ccc3cc2C[C@@H]1OC/C=C/c1ccccc1 [SLC-D011]
CYP inhibition (CYP3A4): 92.5
GFP intensity after treatment with SLC-D011, Ave (progerin; 10nM): 23.7595 AU
GFP intensity after treatment with SLC-D011 (progerin; 10nM): 22.794 AU and 22.0662 AU and 26.4183 AU
GFP intensity after treatment with SLC-D011, Ave (progerin; 50nM): 15.0559 AU
GFP intensity after treatment with SLC-D011 (progerin; 50nM): 15.1696 AU and 15.171 AU and 14.827 AU
GFP intensity after treatment with SLC-D011, Ave (progerin; 100nM): 3.935 AU
GFP intensity after treatment with SLC-D011 (progerin; 100nM): 3.384 AU and 4.172 AU and 4.251 AU
GFP intensity after treatment with SLC-D011, Ave (progerin; 500nM): 1.357 AU
GFP intensity after treatment with SLC-D011 (progerin; 500nM): 1.4575 AU and 1.25 AU and 1.363 AU
GFP intensity after treatment with SLC-D011, Ave (progerin; 1μM): 1.02 AU
GFP intensity after treatment with SLC-D011 (progerin; 1μM): 0.898 AU and 1.076 AU and 1.085 AU
GFP intensity after treatment with SLC-D011, Ave (progerin; 2μM): 0.8179 AU
GFP intensity after treatment with SLC-D011 (progerin; 2μM): 0.8856 AU and 0.7639 AU and 0.8042 AU
GFP intensity after treatment with SLC-D011, Ave (progerin; 5μM): 0.08935 AU
GFP intensity after treatment with SLC-D011 (progerin; 5μM): 0.1141 AU and 0.03666 AU and 0.1173 AU
Concentration from which exogenous progerin expression is reduced (progerin; HEK293, GFP-PG, 24 hr): 100 nM
